Assay results reported in patent US7973047B2, “Beta-Secretase modulators and methods of use” (Amgen Inc., priority 2010, dated 2011).
Read-outs that look alike come from different tables or passages of the source.

System: Aβ40 in conditioned medium of cells stably expressing Amyloid Precursor Protein (APP)
Test: BACE cell-based assay: Aβ40 in conditioned medium by sandwich ELISA
Procedure, shortened: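 APP-stable cells grown 24 h in DMEM/10% FBS, then exposed to compounds for 24 h in a 10-point dose series starting at 100 or 10 μM, 0.1% DMSO final. Medium Aβ40 measured by pAb40/biotinylated 6E10 sandwich ELISA with Europium time-resolved fluorescence; IC50 from percent inhibition.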

[1] = cell based assay data of Table 4, unit inferred, read-out: Cell Assay
[2] = cell based assay data, Table 4, unit inferred, read-out: Cell Assay

| IC50 [1] | IC50 [2] | Molecule | other results |
| --- | --- | --- | --- |
| 13.8 nM | – | CC(=O)N[C@@H](Cc1ccc(F)cc1)[C@H](O)CN[C@H]1CC(C)(C)Oc2ncc(CC(C)(C)C)cc21 [compound 572] | – |
| 120 nM | – | CC(=O)N[C@@H](Cc1ccc(Cl)cc1)[C@H](O)CN[C@H]1CC2(CC2)Oc2ncc(CC(C)(C)C)cc21 [compound 580] | – |
| – | 34.8 nM | CC(=O)N[C@@H](Cc1ccccc1)[C@H](O)CN[C@H]1CC(C)(C)Oc2cnc(CC(C)(C)C)cc21 [compound 794] | – |
| – | 167 nM | CC(=O)N[C@@H](Cc1cncc(F)c1)[C@@H](O)CN[C@H]1CC2(CCC2)Oc2ncc(CC(C)(C)C)cc21 [compound 831, N-((1S,2S)-3-(((4′S)-6′-(2,2-dimethylpropyl)-3′,4′-dihydrospiro[cyclobutane-1,2′-pyrano[2,3-b]pyridin]-4′-yl)amino)-1-((5-fluoro-3-pyridinyl)methyl)-2-hydroxypropyl)acetamide] | – |
| – | 1950 nM | N-((1S,2R)-3-(((2R,4S)-1′-acetyl-6-ethyl-3,4-dihydrospiro[chromene-2,3′-pyrrolidin]-4-yl)amino)-2-hydroxy-1-(phenylmethyl)propyl)acetamide N-((1S,2R)-3-(((2S,4S)-1′-acetyl-6-ethyl-3,4-dihydrospiro[chromene-2,3′-pyrrolidin]-4-yl)amino)-2-hydroxy-1-(phenylmethyl)propyl)acetamide [compound 812] | – |
| – | 74.1 nM | CC(=O)N[C@@H](Cc1ccccc1)[C@H](O)CN[C@H]1CC2(CCC2)Oc2ncc(C(F)C(C)C(F)(F)F)cc21 (stereo partly shown) [compound 862] | – |
| 13.8 nM | – | CC(=O)N[C@@H](Cc1ccccc1)[C@H](O)CN[C@H]1CC(C)(C)Cc2sc(CC(C)(C)C)cc21 [compound 654, N-((1S,2R)-3-(((4S)-2-(2,2-dimethylpropyl)-6,6-dimethyl-4,5,6,7-tetrahydro-1-benzothien-4-yl)amino)-2-hydroxy-1-(phenylmethyl)propyl)acetamide] | – |
| 94.7 nM | – | CC(=O)N[C@@H](Cc1ccc(F)cc1)[C@H](O)CN[C@H]1CC2(CCC2)Oc2nc(F)c(CC(C)(C)C)cc21 [compound 662] | – |
| 1430 nM | – | CC(=O)N[C@@H](Cc1cccc(F)c1)[C@H](O)CN[C@H]1CC2(CCC2)Oc2ncc([C@@H](F)C(C)C)cc21 [compound 555] | – |
| – | 25.8 nM | CC(=O)N[C@@H](Cc1cccc(F)c1)[C@H](O)CN[C@H]1CC2(CCC2)Oc2cnc(CC(C)(C)F)cc21 [compound 827] | – |
| – | 981 nM | CC(=O)N[C@@H](Cc1ccccc1)[C@H](O)CN[C@H]1CC2(CCC2)Oc2ccc(NC(C)(C)C)cc21 [compound 772] | – |
| – | 215 nM | CC(=O)N[C@@H](Cc1cc(F)cc(F)c1)[C@H](O)CN[C@H]1CC2(CCC2)Oc2ncc(-n3cccn3)cc21 [compound 746] | – |
| – | 17.9 nM | CC(=O)N[C@@H](Cc1cc(F)cc(N(C)C)c1)[C@H](O)CN[C@H]1CC2(CCC2)Oc2ncc(CC(C)(C)C)cc21 [compound 759] | – |
| – | 9.72 nM | CC(=O)N[C@@H](Cc1ccnc(OC(F)F)c1)[C@H](O)CN[C@H]1CC2(CCC2)Oc2ncc(CC(C)(C)C)cc21 [compound 726, N-((1S,2R)-1-((2-((difluoromethyl)oxy)-4-pyridinyl)methyl)-3-(((4′S)-6′-(2,2-dimethylpropyl)-3′,4′-dihydrospiro[cyclobutane-1,2′-pyrano[2,3-b]pyridin]-4′-yl)amino)-2-hydroxypropyl)acetamide] | – |
| – | ≥ 10000 nM | CCc1ccc2c(c1)[C@@H](NC[C@@H](O)[C@H](COCc1ccccc1)NC(C)=O)CC1(CCC1)O2 [compound 733] | – |
| 569 nM | – | CC(=O)N[C@@H](Cc1ccc(F)cc1)[C@H](O)CN[C@@H]1CC2(CCCC2)C(=O)c2ccc(CC(C)(C)C)cc21 [compound 564, N-((1S,2R)-3-(((4′R)-6′-(2,2-dimethylpropyl)-1′-oxo-3′,4′-dihydro-1′H-spiro[cyclopentane-1,2′-naphthalen]-4′-yl)amino)-1-((4-fluorophenyl)methyl)-2-hydroxypropyl)acetamide] | – |
| 4.64 nM | – | CC(=O)N[C@@H](Cc1ccc(F)c(C)c1)[C@H](O)CN[C@H]1CC2(CCC2)Oc2ncc(CC(C)(C)C)cc21 [compound 575] | – |
| – | 11.3 nM | CCC(=O)N[C@@H](Cc1cc(F)cc(Cl)c1)[C@H](O)CN[C@H]1CC(C)(C)Oc2cnc(CC(C)(C)C)cc21 [compound 797] | – |
| – | 88.2 nM | CC(=O)N[C@@H](Cc1cc(F)cc(F)c1)[C@H](O)CN[C@H]1CC2(CCC2)Oc2ccc(Br)cc21 [compound 774] | – |
| 5.08 nM | – | CC(=O)N[C@@H](Cc1ccccc1F)[C@H](O)CN[C@H]1CC2(CCC2)Oc2ncc(CC(C)(C)C)cc21 [compound 703] | – |
| – | 190 nM | CC(=O)N[C@@H](Cc1ccccc1)[C@H](O)CN[C@H]1CC2(CCC2)Oc2ccc(-c3ccn(CC(C)C)n3)cc21 [compound 779] | – |
| – | 4.34 nM | CC(=O)N[C@@H](Cc1cccc(F)c1F)[C@H](O)CN[C@H]1CC2(CCC2)Oc2ncc(CC(C)(C)C)cc21 [compound 825] | – |
| 634 nM | – | CC(=O)N[C@@H](Cc1ccc(Cl)cc1)[C@H](O)CN[C@H]1CC2(CCC2)Oc2c1cc(CC(C)(C)C)nc2N(C)C [compound 600] | – |
| – | 286 nM | CCC#CC[C@H](NC(C)=O)[C@H](O)CN[C@H]1CC2(CCC2)Oc2ncc(CC(C)(C)C)cc21 [compound 742] | – |
| 6.04 nM | – | CC(=O)N[C@@H](Cc1ccccc1)[C@H](O)CN[C@H]1CC2(CCC2)Oc2ncc([C@H](F)C(C)(C)C)cc21 [compound 679] | – |

| IC50 [1] | IC50 [2] | Molecule | other results |
| --- | --- | --- | --- |
| 631 nM | – | CC(=O)N[C@@H](Cc1cc(F)cc(F)c1)[C@H](O)CN[C@H]1CC2(CCC2)Oc2ccc(-c3ncco3)cc21 [compound 544] | – |
| 4.61 nM | – | CC(=O)N[C@@H](Cc1ccccc1)[C@H](O)CN[C@H]1CC(C)(C)Oc2ncc(CC(C)(C)C)cc21 [compound 545] | – |
| 4.61 nM | – | COc1cccc(C[C@H](NC(C)=O)[C@H](O)CN[C@H]2CC3(CCC3)Oc3ncc(CC(C)(C)C)cc32)c1 [compound 579] | – |
| 161 nM | – | CC(=O)N[C@@H](Cc1cc(F)cc(F)c1)[C@H](O)CN[C@@H]1CC2(CCC2)Oc2c1cc(CC(C)(C)C)nc2OC(C)C [compound 611] | – |
| – | 2950 nM | CC(=O)N[C@@H](Cc1cc(F)cc(F)c1)[C@H](O)CN[C@H]1CC2(CCC2)Oc2cc(F)ccc21 [compound 804] | – |
| – | 5.49 nM | CC(=O)N[C@@H](Cc1ccc2c(c1)OCO2)[C@H](O)CN[C@H]1CC2(CCC2)Oc2ncc(CC(C)(C)C)cc21 [compound 839] | – |
| 103 nM | – | COc1nc(CC(C)(C)C)cc2c1OC1(CCC1)C[C@@H]2NC[C@@H](O)[C@H](Cc1ccc(F)cc1)NC(C)=O [compound 613] | – |
| 38.2 nM | – | CC(=O)N[C@@H](Cc1ccc(F)cc1)[C@H](O)CN[C@H]1C[C@]2(CC[C@H]2C)Oc2ncc(CC(C)(C)C)cc21 [compound 623] | – |
| – | 58.5 nM | CC(=O)N[C@@H](Cc1cc(F)cc(F)c1)[C@H](O)CN[C@H]1CC2(CCC2)Oc2ccc(N[C@@H]3CCOC3)cc21 [compound 790] | – |
| – | 45.4 nM | CC(=O)N[C@@H](Cc1ccc(F)cc1)[C@H](O)CN[C@H]1CC(C)(C)Oc2cnc(CC(C)(C)C)cc21 [compound 799] | – |
| 4.09 nM | – | CC(=O)N[C@@H](Cc1ccccc1)[C@H](O)CN[C@H]1CC2(CCC2)Oc2ncc(CC(C)C)cc21 [compound 523] | – |
| – | 452 nM | CC(=O)N[C@@H](Cc1cc(F)cc(F)c1)[C@H](O)CN[C@H]1CC2(CCC2)Oc2cc(F)c(NC3CCOCC3)cc21 [compound 806] | – |
| 651 nM | – | CC(=O)N[C@@H](Cc1ccccc1)[C@H](O)CN[C@H]1CC2(CCC2)Cc2ncc(C)cc21 [compound 541, N-((1S,2R)-2-hydroxy-3-(((5′S)-3′-methyl-5′,8′-dihydro-6′H-spiro[cyclobutane-1,7′-quinolin]-5′-yl)amino)-1-(phenylmethyl)propyl)acetamide] | – |
| – | – | CC(=O)N[C@@H](Cc1ccccc1)[C@H](O)CN[C@H]1CC2(CCC2)Oc2ncc(C3CCCO3)cc21 (stereo partly shown) [Example 384] | IC50 (cells stably expressing APP, 24 h incubation with compound, Aβ40 in supernatant by sandwich ELISA, read-out: IC50 values in the cell-based assay (inhibition or reduction of Aβ40)): ≤ 5000 nM |
| ≥ 10000 nM | – | CC(=O)N[C@@H](Cc1ccccc1)[C@H](O)CN[C@H]1CC2(CCC2)Oc2ccc(-c3cn(C)nn3)cc21 [compound 521] | – |
| – | 359 nM | CC(=O)N[C@@H](Cc1cc(F)cc(F)c1)[C@H](O)CN[C@H]1CC2(CCC2)Oc2ccc(N3CCCC3=O)cc21 [compound 793] | – |
| – | 1420 nM | CC(=O)N[C@@H](CCC(F)(F)F)[C@H](O)CN[C@H]1CC2(CCC2)Oc2ncc(CC(C)(C)C)cc21 [compound 738, N-((1S)-1-((1R)-2-(((4′S)-6′-(2,2-dimethylpropyl)-3′,4′-dihydrospiro[cyclobutane-1,2′-pyrano[2,3-b]pyridin]-4′-yl)amino)-1-hydroxyethyl)-4,4,4-trifluorobutyl)acetamide] | – |
| 8.61 nM | – | CC(=O)N[C@@H](Cc1cccc(F)c1F)[C@H](O)CN[C@H]1CC2(CCC2)Oc2ncc([C@H](F)C(C)(C)C)cc21 [compound 677] | – |
| 3.24 nM | – | CC(=O)N[C@@H](Cc1cccc(F)c1)[C@H](O)CN[C@H]1CC2(CCC2)Oc2c1cc(CC(C)(C)C)nc2NC1CCOCC1 [compound 592] | – |
| 6.93 nM | – | CC(=O)N[C@@H](Cc1cccc(F)c1)[C@H](O)CN[C@H]1CC2(CCCC2)Oc2ncc(CC(C)(C)C)cc21 [compound 549] | – |
| 5.49 nM | – | CC(=O)N[C@@H](Cc1cc(F)cc(F)c1)[C@H](O)CN[C@H]1CC(C)(C)Nc2ccc(CC(C)(C)C)cc21 [compound 693] | – |
| 8.13 nM | – | CC(=O)N[C@@H](Cc1ccc(F)cc1)[C@H](O)CN[C@H]1CC2(CCC2)Oc2ncc(CC(C)(C)C)cc21 [compound 568] | – |
| – | 3330 nM | C=C[C@H](NC(C)=O)[C@H](O)CN[C@H]1CC2(CCC2)Oc2ncc(CC(C)(C)C)cc21 [compound 740, N-((1S)-1-((1R)-2-(((4′S)-6′-(2,2-dimethylpropyl)-3′,4′-dihydrospiro[cyclobutane-1,2′-pyrano[2,3-b]pyridin]-4′-yl)amino)-1-hydroxyethyl)-2-propen-1-yl)acetamide] | – |
| 2.36 nM | – | CC(=O)N[C@@H](Cc1ccc(F)c(F)c1)[C@H](O)CN[C@H]1CC2(CCC2)Oc2ncc(CC(C)(C)C)cc21 [compound 701] | – |
